Experiments:
[1] = tested on: TNF-α production in BV2 cell line; assay: Suppressing effect on production of cytokine (ELISA), TNF-α; format: cell-based; details: LPS + 100 uM of sample, 24 hours; for inhibition at 100 µM: Mus musculus, BV-2, level in medium; for TNF-α % Inhibition: level in medium, 100 µM
Experimental: (§1) Effects of the 2-hydroxybenzoic acid derivatives on production of cytokine in BV2 cell line were evaluated. 24-well plate was inoculated with 1×10^6 cells of BV2 cell line, and treated with both LPS, inflammation-inducing material, and 100 uM of sample (the 2-hydroxybenzoic acid derivative or comparative drug), together. After 24 hours of incubation, culture medium was collected. The levels of cytokines, TNF-α and IL-6, in the medium were evaluated by ELISA method.

BV2 microglia cell line = assay: Suppressing effect on production of NO (LPS, Griess reagent); format: cell-based; details: Mus musculus, BV-2, LPS-treated BV2 microglia, 24 hours incubation
Experimental: Inhibiting effect of the 2-hydroxybenzoic acid derivative according to the present invention on NO, inflammatory factor intervening inflammation reaction was evaluated. BV2 microglia cell line was treated with lipopolysaccharide (LPS), a inflammation-inducing material of bacteria toxin, with inclusion of 10 uM, 30 uM or 100 uM of the present compound. After 24 hours of incubation, 50 ul of culture medium was collected in 96-well plate. Then, 50 ul of Griess reagent was added and incubated for 10 minutes at room temperature. The absorbance was evaluated by ELISA reader at 540 nm.

[2] = Single-dose toxicity test; format: in vivo
Experimental: FIG. 32 is results of single dose toxicity testing of some 2-hydroxybenzoic acid derivatives according to the present invention.
Single-dose toxicities of the 2-hydroxybenzoic acid derivatives were evaluated.

MPO (myeloperoxidase) = details: cited from earlier work; for activity of MPO: in vivo
[3] = tested on: collagen-induced arthritis; assay: Collagen-induced arthritis model (arthritic index); format: in vivo, mouse
Experimental: FIG. 15 is results showing efficacy through arthritis animal model induced by collagen. 25 mg/kg of compound 2, 3 or 18, or methotrexate (control, MTX, 1 mg/kg/week) was intraperitoneally injected after administration of collagen.
FIG. 16 is results showing efficacy of compounds 6 and 11 through arthritis animal model induced by collagen. Collagen was intradermally injected two times with 2 week-interval. One week later, compound 6, compound 11 and methotrexate (control) were intraperitoneally injected. Then, the animals were observed everyday for 2-3 weeks, and results was evaluated by arthritis index.
To evaluate the efficacy of the 2-hydroxybenzoic acid derivative, collagen-induced arthritis model (rheumarthritis animal model) was used. Bovine type II collagen was mixed with complete Freund's adjuvant to make an emulsion, and the emulsion was intradermally injected into the origin site of 8˜10 week-old DBA/1LacJ mouse tail. Intradermal boosting was performed by the same method 2 weeks later. 25 mg/kg/day of compounds 2, 3 and 18, 1 mg/kg/week of methotrexate (comparative example) or 10% vehicle (control) were intraperitoneally injected one week after the second intradermal injection of collagen (FIG. 15). Pictures of foot edema of normal rat (sham), collagen-administered rat (collagen) and compound 18-administered rat (compound 18, 25 mg/kg/day injection) were shown in FIG. 14.
In addition, 50 mg/kg/day of compounds 6 and 11, and 5 mg/kg/2 days of methotrexate (comparative example) were intraperitoneally injected. Phosphate buffered saline was injected as control (FIG. 16). For 2˜3 weeks, the degree of arthritis was observed everyday, and the result was evaluated according to the below arthritic index using edema.
4 paws were evaluated as from 0 to 4 point, Total points: 16

[4] = tested on: TNF-alpha gene expression in BV2 cell line; assay: Suppressing effect on gene expression (RT-PCR), TNF-alpha; format: cell-based; details: gene expression vs LPS control, BV2, 24 hours; for inhibition at 100 µM: Mus musculus, BV-2, 24 h
Experimental: (§2) Effects of the 2-hydroxybenzoic acid derivatives on iNOS gene expression in BV2 cell line were evaluated. 100 mm dish was inoculated with 1×10^6 cells of BV2 cell line, and treated with both LPS, inflammation-inducing material, and 1˜100 uM of the 2-hydroxybenzoic acid derivative of the present invention, together, in regular concentration interval. After 24 hours of incubation, RNA was extracted. Extracted RNA was used in reverse transcription and polymerase chain reaction, and expression patterns of TNF-alpha, IL-1beta and iNOS were compared.

[5] = tested on: iNOS gene expression in BV2 cell line; assay: Suppressing effect on gene expression (RT-PCR), iNOS; format: cell-based; details: Mus musculus, BV-2, 24 h, gene expression vs LPS control, BV2, 24 hours
Experimental: as §2

[6] = tested on: IL-1beta gene expression in BV2 cell line; assay: Suppressing effect on gene expression (RT-PCR), IL-1beta; format: cell-based; details: Mus musculus, BV-2, 24 h, gene expression vs LPS control, BV2, 24 hours
Experimental: as §2

[7] = tested on: IL-6 production in BV2 cell line; assay: Suppressing effect on production of cytokine (ELISA), IL-6; format: cell-based; details: LPS + 100 uM of sample, 24 hours; for inhibition at 100 µM: Mus musculus, BV-2, level in medium; for IL-6 % Inhibition: level in medium
Experimental: as §1

DSS-induced colitis = assay: 5% dextran sulfate sodium (DSS) inflammatory intestinal disease model; format: in vivo, mouse; details: vs DSS only; compound 18 25 mg/kg oral
Experimental: FIG. 17 is results showing efficacy through 5% dextran sulfate sodium (DSS) model, inflammatory intestinal disease animal model. After treatment of DSS, 10, 25 or 50 mg/kg of compound 18 suspended in 10% vehicle was orally administered. Sham means colon of normal mouse, DSS means colon mouse treated with 5% DSS. The others are pictures of colon of mice administered with compound 18 at indicated dose.
FIG. 20 is an efficacy test result of compound 18 using DSS. After treatment of DSS, compound 18 (25 mg/kg) suspended in 10% vehicle was orally administered. After that, bloody excrement by colon injury, diarrhea and the degree of dirtiness were evaluated as feces score.
5% dextran sulfate sodium (DSS) model was used as inflammatory intestinal disease animal model. 5% DSS mixed with water was orally administered. 5% DSS model causes damage to epithelial cell, and ulcer in left colon and the decrease of colon length are mainly observed in the model. This model is simple and reproductive, and can regulate the degree of inflammation according to dose. Therefore, this model is often used for evaluating drug candidates.
DSS is continuously administered in water bottle. The 2-hydroxybenzoic acid derivative was suspended in 10% vehicle, and orally administered.

With `O=C(O)c1cc(NCCc2cc(C(F)(F)F)cc(C(F)(F)F)c2)ccc1O` [compound 4, 5-[2-(3,5-bis-trifluoromethyl-phenyl)-ethylamino]-2-hydroxy-benzoic acid] the inhibition at 100 µM [1] was 18.7%, the IC50 (BV2 microglia cell line) was 6.25 µM and the “single-dose toxicity, finding in words” value ([2]; mouse, in vivo) was “caused sudden death of mouse at 3 g/kg”.

In the case of `CS(=O)(=O)Nc1ccc([N+](=O)[O-])cc1Oc1ccccc1` [nimesulide], the “protective effect in intestinal damage animal models” value (MPO (myeloperoxidase); acetic acid-induced IBD and LTB4-induced IBD) is given as “showed protective effect” and the “activity of MPO” value (MPO (myeloperoxidase)) is given as “excessively suppressed the activity of MPO”.

With `COc1ccc(CCNc2ccc(O)c(C(=O)O)c2)cc1` [compound 11, 2-hydroxy-5-[2-(4-methoxy-phenyl)-ethylamino]-benzoic acid] the IC50 (BV2 microglia cell line) was 132 µM and the arthritic index ([3]; 50 mg/kg/day intraperitoneal) was “apparent reducing effect”.

For `O=C(O)c1cc(NCCCc2ccc(C(F)(F)F)cc2)ccc1O` [compound 14, 2-hydroxy-5-[3-(4-trifluoromethyl-phenyl)-propylamino]-benzoic acid], the inhibition at 100 µM [1] was 62.6%, the inhibition at 100 µM [4] was 38.9% and the inhibition at 100 µM [5] was 44.3%. The “single-dose toxicity, finding in words” value ([2]; single dose) was “high toxicity or dose-independent toxicity”.

`O=C(O)c1cc(NCCCc2ccccc2)ccc1O` [compound 13, 2-hydroxy-5-(3-phenyl-propylamino)-benzoic acid] showed an inhibition at 100 µM [4] of 43% and an inhibition at 100 µM [5] of 15.5%.

`Cc1ccccc1CCNc1ccc(O)c(C(=O)O)c1` [compound 12, 2-hydroxy-5-(2-o-tolyl-ethylamino)-benzoic acid] gave an inhibition at 100 µM [5] of 43.7% and an inhibition at 100 µM [6] of 41.8%.

With `O=C(O)c1cc(NCCc2cccc(C(F)(F)F)c2)ccc1O` [compound 3, 2-hydroxy-5-[2-(3-trifluoromethyl-phenyl)-ethylamino]-benzoic acid] the inhibition at 100 µM [1] was 31.9%, the inhibition at 100 µM [7] was 33.1% and the “single-dose toxicity, finding in words” value ([2]; single dose) was “high toxicity or dose-independent toxicity”. The arthritic index ([3]; 25 mg/kg/day intraperitoneal) was “apparent reducing effect”.

For `O=C(O)c1cc(NCCc2ccc(Cl)cc2)ccc1O` [compound 6, 5-[2-(4-chloro-phenyl)-ethylamino]-2-hydroxy-benzoic acid], the arthritic index ([3]; 50 mg/kg/day intraperitoneal) was “apparent reducing effect”.

Work on `O=C(O)c1cc(NCCc2ccccc2[N+](=O)[O-])ccc1O` [compound 5, 2-hydroxy-5-[2-(2-nitro-phenyl)-ethylamino]-benzoic acid] yielded an inhibition at 100 µM [4] of 38.7% and an inhibition at 100 µM [6] of 67.7%.

`O=C(O)c1cc(NCCc2ccccc2Cl)ccc1O` [compound 19, 5-[2-(2-chloro-phenyl)-ethylamino]-2-hydroxy-benzoic acid] showed an LD50 ([2]; mouse, in vivo, single dose) of 500 to 1000 mg/kg.

With `CC(=O)Oc1ccccc1C(=O)O` [Aspirin, acetylsalicylic acid, reference compound] the “TNF-α % Inhibition” value [1] was “No effect”, the “TNF-α % Inhibition” value ([1]; listed as aspirin) was “did not showing reducing effect” and the inhibition at 100 µM [7] was 22.2%. The “IL-6 % Inhibition” value [7] was “little reduced”.

Compound `O=C(O)c1cc(NCCCc2ccc(F)cc2)ccc1O` [compound 15, 5-[3-(4-fluoro-phenyl)-propylamino]-2-hydroxy-benzoic acid] has an inhibition at 100 µM [4] of 37.4% and an inhibition at 100 µM [6] of 35.1%.

For `CC(c1cc2ccccc2s1)N(O)C(N)=O` (stereo not shown) [Zileuton], the “activity of MPO” value (MPO (myeloperoxidase)) is listed as “decreased the activity of MPO”.

With `O=C(O)c1cc(NCCc2ccc(Cl)c(Cl)c2)ccc1O` [compound 8, 5-[2-(3,4-dichloro-phenyl)-ethylamino]-2-hydroxy-benzoic acid] the inhibition at 100 µM [4] was 77%, the “% Inhibition (in 100 uM) TNF-alpha” value [4] was 77.1% and the inhibition at 100 µM [6] was > 50%.

For `O=C(O)c1cc(NCCc2ccccc2)ccc1O` [compound 1, 2-hydroxy-5-phenethylamino-benzoic acid], the IC50 (BV2 microglia cell line) was 183 µM.

In the case of `O=C(O)c1cc(/N=N/c2ccc(S(=O)(=O)Nc3ccccn3)cc2)ccc1O` [sulfasalazine, reference compound], the “activity of MPO” value (MPO (myeloperoxidase)) is listed as “decreased the activity of MPO” and the “feces score (bloody excrement, diarrhea, dirtiness)” value (DSS-induced colitis) is listed as “significantly decreased feces score”.

For `Cc1ccc(CCCNc2ccc(O)c(C(=O)O)c2)cc1` [compound 17, 2-hydroxy-5-(3-p-tolyl-propylamino)-benzoic acid], the inhibition at 100 µM [4] was 20.8%.

For `O=C(O)c1cc(NCCc2ccc(F)cc2C(F)(F)F)ccc1O` [compound 9, 5-[2-(4-fluoro-2-trifluoromethyl-phenyl)-ethylamino]-2-hydroxy-benzoic acid], the inhibition at 100 µM [4] was 61.7%, the “% Inhibition (in 100 uM) TNF-alpha” value [4] was 61.7% and the inhibition at 100 µM [5] was 17.8%. For the same compound, the IC50 (BV2 microglia cell line) was 1.79 µM.

For `CC(C)Cc1ccc(C(C)C(=O)O)cc1` (stereo not shown) [Ibuprofen, reference compound], the “TNF-α % Inhibition” value [1] was “No effect”, the “TNF-α % Inhibition” value ([1]; listed as ibuprofen) was “did not showing reducing effect” and the “IL-6 % Inhibition” value ([7]; 100 µM) was “No effect”. The “IL-6 % Inhibition” value ([7]; listed as ibuprofen, 100 µM) was “little reduced”.

`O=C(O)c1cc(NCCc2ccc(C(F)(F)F)cc2F)ccc1O` [compound 10, 5-[2-(2-fluoro-4-trifluoromethyl-phenyl)-ethylamino]-2-hydroxy-benzoic acid] showed an IC50 (BV2 microglia cell line) of 20.7 µM.
